Read-outs that look alike come from different tables or passages of the source.
Assays:
[1] = molecular target: EeAChE (Electrophorus electricus, UniProt O42275); assay: AChE inhibition assay; format: biochemical
[2] = molecular target: hBACE 1 (Homo sapiens, UniProt P56817); assay: BACE 1 inhibition assay; format: biochemical
hBACE 1, sequence (P56817 46-501): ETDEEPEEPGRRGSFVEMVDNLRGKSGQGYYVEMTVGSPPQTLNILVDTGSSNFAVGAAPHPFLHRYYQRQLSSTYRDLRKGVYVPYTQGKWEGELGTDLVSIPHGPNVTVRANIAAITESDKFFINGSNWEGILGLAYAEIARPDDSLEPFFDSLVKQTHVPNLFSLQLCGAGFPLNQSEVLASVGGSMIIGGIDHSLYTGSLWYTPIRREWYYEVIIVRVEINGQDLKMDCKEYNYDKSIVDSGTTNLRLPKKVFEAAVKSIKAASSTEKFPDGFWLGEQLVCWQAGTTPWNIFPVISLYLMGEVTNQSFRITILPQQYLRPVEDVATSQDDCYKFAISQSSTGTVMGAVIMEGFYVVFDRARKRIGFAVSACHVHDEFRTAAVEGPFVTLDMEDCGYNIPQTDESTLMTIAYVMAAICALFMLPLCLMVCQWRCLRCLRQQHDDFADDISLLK

EeAChE, sequence (O42275 24-633): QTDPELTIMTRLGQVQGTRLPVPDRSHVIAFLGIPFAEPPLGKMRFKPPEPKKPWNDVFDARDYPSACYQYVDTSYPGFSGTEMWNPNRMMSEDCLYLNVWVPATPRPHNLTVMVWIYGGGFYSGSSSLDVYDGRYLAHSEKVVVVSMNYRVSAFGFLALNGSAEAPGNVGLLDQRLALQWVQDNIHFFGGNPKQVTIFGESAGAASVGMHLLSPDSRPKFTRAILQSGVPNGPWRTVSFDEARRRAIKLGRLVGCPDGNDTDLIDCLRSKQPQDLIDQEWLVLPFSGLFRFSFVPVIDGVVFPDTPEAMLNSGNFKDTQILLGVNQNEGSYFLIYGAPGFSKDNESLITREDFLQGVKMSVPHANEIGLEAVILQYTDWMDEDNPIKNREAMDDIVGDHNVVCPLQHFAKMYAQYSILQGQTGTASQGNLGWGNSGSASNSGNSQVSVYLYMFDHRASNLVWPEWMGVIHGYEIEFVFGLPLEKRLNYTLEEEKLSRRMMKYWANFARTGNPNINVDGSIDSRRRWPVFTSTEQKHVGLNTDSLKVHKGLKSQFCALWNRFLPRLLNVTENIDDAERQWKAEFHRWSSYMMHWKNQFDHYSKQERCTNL

SMILES	IC50 ([1]; read-out: eeAChE IC50 (μM) ± SD, Ellman assay, mean ± SD of three experiments) [µM]	IC50 ([2]; read-out: hBACE 1 IC50 (μM) ± SD, FRET assay, mean ± SD of three experiments) [µM]	IC50 [1] [µM]	IC50 [2] [µM]	BACE 1 inhibition (%) ([2]; concentration not given)
[H]/N=C(/N)NN=C(/C=C/c1ccccc1)c1cccn1Cc1ccc(OC(F)F)cc1 [Compound 2c, (Z)-2-((E)-1-(1-(4-(Difluoromethoxy)benzyl)-1H-pyrrol-2-yl)-3-phenylallylidene)hydrazine-1-carboximidamide]	195.8 ± 0.99	15.4 ± 0.24	–	–	–
[H]/N=C(/N)NN=C(/C=C/c1ccc(C(C)C)cc1)c1cccn1Cc1ccccc1 [Compound 1h, (Z)-2-((E)-1-(1-Benzyl-1H-pyrrol-2-yl)-3-(4-isopropylphenyl)allylidene)hydrazine-1-carboximidamide]	–	–	203.8 ± 1.7	108 ± 1.2	–
[H]/N=C(/N)NN=C(/C=C/c1ccccn1)c1cccn1Cc1ccccc1 [Compound 1j, (Z)-2-((E)-1-(1-Benzyl-1H-pyrrol-2-yl)-3-(pyridin-2-yl)allylidene)hydrazine-1-carboximidamide]	–	–	95.6 ± 2.4	13.7 ± 0.77	43.62
[H]/N=C(/N)NN=C(/C=C/c1ccccc1)c1cccn1Cc1cccc(C#N)c1 [Compound 2o, (Z)-2-((E)-1-(1-(3-Cyanobenzyl)-1H-pyrrol-2-yl)-3-phenylallylidene)hydrazine-1-carboximidamide]	–	–	75.4 ± 1.03	147.8 ± 0.28	–
